Entries after “also recorded” stand apart in the source; their conditions may differ. Read-outs that look alike come from different tables or passages of the source.
Tests used:
[1] = target: KCNQ5 containing an S5-S6 transmembrane domain from KCNQ1 (Homo sapiens, UniProt Q9NR82, A261I/A269T/A329S/A332S/F282Y/G330C/G335A/I307V/INS291VNESG/K264Q/K293V/L283F/L309V/L320Q/L323V/L326T/L327I/L333V/L334F/N292R/R325K/S263R/S296G/S328A/T297S/T306V/T318V/V276G/V287A/W270L/Y260F); details: 50 μM retigabine
Chain of KCNQ5 containing an S5-S6 transmembrane domain from KCNQ1 (Q9NR82 other isoform, or with tags, fused parts or gaps with the stated changes): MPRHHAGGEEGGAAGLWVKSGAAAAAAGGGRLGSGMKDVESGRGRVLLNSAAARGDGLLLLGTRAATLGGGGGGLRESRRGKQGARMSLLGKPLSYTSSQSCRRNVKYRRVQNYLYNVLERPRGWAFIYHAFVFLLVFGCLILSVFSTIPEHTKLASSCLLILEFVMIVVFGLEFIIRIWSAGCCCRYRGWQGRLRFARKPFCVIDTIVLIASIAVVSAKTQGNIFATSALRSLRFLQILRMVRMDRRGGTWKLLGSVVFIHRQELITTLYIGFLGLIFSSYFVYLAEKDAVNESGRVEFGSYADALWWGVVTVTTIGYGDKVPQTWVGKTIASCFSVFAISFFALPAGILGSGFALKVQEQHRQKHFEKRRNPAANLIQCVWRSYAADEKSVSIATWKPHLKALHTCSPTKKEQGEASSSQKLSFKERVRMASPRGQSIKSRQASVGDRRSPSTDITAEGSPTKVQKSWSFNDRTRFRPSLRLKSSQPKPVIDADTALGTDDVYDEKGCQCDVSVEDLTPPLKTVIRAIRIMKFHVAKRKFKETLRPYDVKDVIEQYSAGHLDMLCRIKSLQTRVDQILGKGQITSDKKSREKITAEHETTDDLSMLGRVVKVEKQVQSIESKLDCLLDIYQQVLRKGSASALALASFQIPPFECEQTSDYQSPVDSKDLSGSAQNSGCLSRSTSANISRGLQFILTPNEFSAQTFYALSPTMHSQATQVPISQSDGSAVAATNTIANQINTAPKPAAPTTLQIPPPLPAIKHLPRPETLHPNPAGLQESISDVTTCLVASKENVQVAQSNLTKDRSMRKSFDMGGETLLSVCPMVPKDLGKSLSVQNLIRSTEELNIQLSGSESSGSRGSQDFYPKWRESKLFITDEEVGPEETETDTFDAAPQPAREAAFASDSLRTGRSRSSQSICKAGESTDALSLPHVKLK
Source text: Differences were considered to be significant at P<0.05.
All mutations were confirmed by DNA sequencing.

KCNQ5(W270L) = target: T1, KCNQ5(W270L) (Homo sapiens, UniProt Q9NR82, W270L); assay: Two-electrode voltage clamp in Xenopus oocytes, S5 point mutant KCNQ5(W270L); type: cell-based; details: 50 μM retigabine; FIG. 3 bottom panel
T1 construct: expressed in transfected cells; host or cells: Xenopus oocytes injected with cRNA
T1 sequence (Q9NR82 whole entry W270L): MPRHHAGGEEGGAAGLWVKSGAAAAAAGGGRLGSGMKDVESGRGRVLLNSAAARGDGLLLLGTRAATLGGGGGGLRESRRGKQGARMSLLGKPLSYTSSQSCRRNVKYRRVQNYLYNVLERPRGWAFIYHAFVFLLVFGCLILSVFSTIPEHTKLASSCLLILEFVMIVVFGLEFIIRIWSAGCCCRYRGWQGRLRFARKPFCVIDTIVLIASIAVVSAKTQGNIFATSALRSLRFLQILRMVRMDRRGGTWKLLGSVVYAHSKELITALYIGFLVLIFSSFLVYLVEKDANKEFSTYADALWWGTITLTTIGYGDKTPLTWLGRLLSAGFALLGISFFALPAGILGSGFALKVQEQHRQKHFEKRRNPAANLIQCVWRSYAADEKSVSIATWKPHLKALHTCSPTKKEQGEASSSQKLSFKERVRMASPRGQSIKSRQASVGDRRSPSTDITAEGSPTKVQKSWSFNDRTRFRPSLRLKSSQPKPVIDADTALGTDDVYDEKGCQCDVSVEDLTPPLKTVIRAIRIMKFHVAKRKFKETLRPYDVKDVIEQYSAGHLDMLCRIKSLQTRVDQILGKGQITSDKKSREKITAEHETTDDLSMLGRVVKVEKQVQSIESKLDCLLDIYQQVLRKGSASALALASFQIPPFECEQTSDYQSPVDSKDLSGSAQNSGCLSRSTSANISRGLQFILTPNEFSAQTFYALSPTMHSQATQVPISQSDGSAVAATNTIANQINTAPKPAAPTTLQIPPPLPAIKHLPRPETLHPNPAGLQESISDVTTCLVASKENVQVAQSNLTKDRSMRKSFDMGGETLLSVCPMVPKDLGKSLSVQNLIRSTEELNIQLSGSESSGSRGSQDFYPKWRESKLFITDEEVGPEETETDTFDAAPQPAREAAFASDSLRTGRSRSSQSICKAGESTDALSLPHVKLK
Description: (§1) FIG. 3 Mutagenesis analysis of S5 domain in KCNQ5. Sequence alignment of all five members in KCNQ family is shown on the top. The most diverse residues between KCNQ1 and the other members are highlighted in bold case and the corresponding residues in KCNQ5 were individually mutated to their counterparts in KCNQ1. Then each mutant with single mutation was tested with 50 μM retigabine and the fold increase (IΔ/I0) in current amplitude was plotted in the graph on bottom. In all mutants, n equals 6.
(§2) The gene sequences were confirmed by DNA sequencing. […] Electrophysiological recording was performed 3-7 days after injection.
(§3) The S5 domains of all five KCNQ members were sequence aligned and searched for unique amino acid residues that might account for the lack of KCNQ1's response to retigabine. As shown in FIG. 3 upper panel, there are ten unmatched residues between KCNQ1 and KCNQ5. Seven of them highlighted in FIG. 3 may be unique for KCNQ1. Therefore, mutations in KCNQ5 were generated for each of 7 residues modified individually to the corresponding in KCNQ1. One mutant, KCNQ5(F282Y) lost its functionality when expressed in oocytes. […] Retigabine's effect on each of these mutants was then tested.

KCNQ5(A269T) = target: T2, KCNQ5(A269T) (Homo sapiens, UniProt Q9NR82, A269T); assay: Two-electrode voltage clamp in Xenopus oocytes, S5 point mutant KCNQ5(A269T); type: cell-based; details: 50 μM retigabine; FIG. 3 bottom panel
T2 construct: mutations in KCNQ5 were generated for each of 7 residues modified individually to the corresponding in KCNQ1; expressed in transfected cells; host or cells: Xenopus oocytes injected with cRNA
T2 sequence (Q9NR82 whole entry A269T): as the sequence (Q9NR82 whole entry W270L) above, with A269T, L270W counted along it
Description: as §1, §2, §3

[2] = target: KCNQ5 containing an S5 transmembrane domain from KCNQ1 (Homo sapiens, UniProt Q9NR82, A261I/A269T/F282Y/K264Q/L283F/S263R/V276G/V287A/W270L/Y260F); details: 50 μM retigabine
Chain of KCNQ5 containing an S5 transmembrane domain from KCNQ1 (Q9NR82 whole entry Y260F/A261I/S263R/K264Q/A269T/W270L/V276G/F282Y/L283F/V287A, the tested form may be a part): as the sequence (Q9NR82 whole entry W270L) above, with Y260F, A261I, S263R, K264Q, A269T, V276G, F282Y, L283F, V287A counted along it
Description: Expression of KCNQ5 and KCNQ1 channels into Xenopus oocytes—Human KCNQ5 and KCNQ1 genes were cloned into a pKSM vector that has been engineered specifically for oocyte expression. […] Xenopus oocytes were injected with 46 nl solution containing approximately 9.2 ng cRNA using a Drumond Nanojet oocyte injector (Drummond Scientific Co., Broomall, Pa.). Electrophysiological recording was performed 3-7 days after injection.
Electrophysiology—All experiments were performed at room temperature (22-23° C.) using conventional oocyte two-electrode voltage clamp recording (TEVC). The recording electrodes were pulled from 1.5 mm glass pipette using a Sutter P-97 micropipette puller (Sutter Instrument, Novato, Calif.) and filled with 3M KCl. The pipette tip was carefully broken off to acquire the electrode resistance at 0.5-1 Mohm. A Dagan CA-1 amplifier (Dagan Corporation, Minneapolis Minn.) was used and the holding potential was clamped at −100 mV. To test voltage dependence of channel activation, a series of depolarized voltage pulses was applied. To observe the time course of retigabine's effect, a single (3 sec) voltage pulse at 40 mV was applied repeatedly at 15 sec intervals. A HEKA computer interface (HEKA Elektronik, Lambrecht, Germany) with Pulse 8.5 software was used to control the amplifier and digitized the data for analysis. Solutions and Chemicals—ND96 solution containing (in mM) NaCl, 96, KCl, 2, CaCl2, 1.8, MgCl2, 1, HEPES, 10 was used for oocyte incubation and recording. Retigabine was made as a stock solution in DMSO at 50 mM and diluted into desired concentrations just before application in experiments. […] In all experiments, DMSO was used less than 0.4%.
Compounds were applied to the cells via a fast bath perfusion system (ALA Scientific Instruments, Westbury, N.Y.), and a bath solution change was completed within 10 seconds.
Data analysis—Current amplitude was measured online using HEKA Pulsefit 8.5 software. To acquire channel conductance from macroscopic current, the K^+ reversal potential was approximated to be −80 mV in ND96 solution and the following equation was applied: G=I/(V+80), where G is the whole oocyte conductance, I is the whole oocyte current, and V is the voltage used to induce the current. Data were expressed as mean±SE, and the paired student t test was performed. Differences were considered to be significant at P<0.05.
To further dissect the action site of retigabine, the S5-S6 transmembrane domain from KCNQ1 was divided into two parts, the S5 transmembrane domain and the S6 transmembrane domain (with linker), and the corresponding chimeric channels of KCNQ5 contained S5 transmembrane domain or S6 transmembrane domain from KCNQ1.

KCNQ1 wild-type = KCNQ1 wild-type (Homo sapiens, UniProt P51787); details: FIG. 4A
Source text: The steady state amplitudes of the currents evoked by a series of depolarized voltage pulses from −100 to 80 mV in 10 mV increment were normalized to the level evoked by the membrane potential of 80 mV in the control group. The holding potential was −100 mV.
Expression of KCNQ5 and KCNQ1 channels into Xenopus oocytes—Human KCNQ5 and KCNQ1 genes were cloned into a pKSM vector that has been engineered specifically for oocyte expression. The gene sequences were confirmed by DNA sequencing. […] The constructs were linearized by XbaI restriction enzyme (NEB, Beverly, Mass.). In vitro transcription was performed with an mMESSAGE mMACHINE® kit (Ambion, Austin, Tex.) and the cRNA was purified by phenol extraction. Xenopus oocytes were injected with 46 nl solution containing approximately 9.2 ng cRNA using a Drumond Nanojet oocyte injector (Drummond Scientific Co., Broomall, Pa.). Electrophysiological recording was performed 3-7 days after injection.
Electrophysiology—All experiments were performed at room temperature (22-23° C.) using conventional oocyte two-electrode voltage clamp recording (TEVC). […]
Data analysis—Current amplitude was measured online using HEKA Pulsefit 8.5 software. […] Data were expressed as mean±SE, and the paired student t test was performed. […]

Wild type KCNQ5 = Wild type KCNQ5 (Homo sapiens, UniProt Q9NR82); details: cited from earlier work
Chain of Wild type KCNQ5 (Q9NR82 whole entry): as the sequence (Q9NR82 whole entry W270L) above, with L270W counted along it

rat KCNQ5 polypeptide = rat KCNQ5 polypeptide (Rattus norvegicus, UniProt F1LY25); details: Jensen et al. 2005; cited from earlier work
Chain of rat KCNQ5 polypeptide (F1LY25 1-951): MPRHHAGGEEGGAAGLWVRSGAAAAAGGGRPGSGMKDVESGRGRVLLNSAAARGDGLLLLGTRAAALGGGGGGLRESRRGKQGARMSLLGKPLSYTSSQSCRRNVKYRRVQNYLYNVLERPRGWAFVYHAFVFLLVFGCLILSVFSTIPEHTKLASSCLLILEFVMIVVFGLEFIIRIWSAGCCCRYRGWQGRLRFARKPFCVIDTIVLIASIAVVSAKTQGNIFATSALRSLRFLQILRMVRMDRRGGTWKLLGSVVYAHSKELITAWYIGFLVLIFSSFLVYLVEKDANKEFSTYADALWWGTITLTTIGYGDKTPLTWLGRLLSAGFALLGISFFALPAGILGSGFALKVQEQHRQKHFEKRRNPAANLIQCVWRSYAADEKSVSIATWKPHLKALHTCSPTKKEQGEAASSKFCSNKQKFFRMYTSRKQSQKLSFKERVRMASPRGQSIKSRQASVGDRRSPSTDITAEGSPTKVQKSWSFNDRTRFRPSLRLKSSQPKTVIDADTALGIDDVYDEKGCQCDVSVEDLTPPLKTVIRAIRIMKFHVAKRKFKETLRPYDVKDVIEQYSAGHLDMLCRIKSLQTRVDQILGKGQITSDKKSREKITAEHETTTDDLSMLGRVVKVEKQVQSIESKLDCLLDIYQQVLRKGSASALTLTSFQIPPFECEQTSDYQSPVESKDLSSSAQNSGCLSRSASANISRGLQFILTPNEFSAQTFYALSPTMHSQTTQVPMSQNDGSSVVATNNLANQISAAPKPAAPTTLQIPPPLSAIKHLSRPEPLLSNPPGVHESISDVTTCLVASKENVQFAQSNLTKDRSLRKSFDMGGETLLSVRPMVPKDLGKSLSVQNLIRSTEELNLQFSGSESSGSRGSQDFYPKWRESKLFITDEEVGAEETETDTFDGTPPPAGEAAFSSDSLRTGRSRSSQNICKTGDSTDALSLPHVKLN

mouse KCNQ5 polypeptide = mouse KCNQ5 polypeptide (Mus musculus, UniProt Q9JK45); details: Jensen et al. 2005; cited from earlier work
Chain of mouse KCNQ5 polypeptide (Q9JK45 whole entry): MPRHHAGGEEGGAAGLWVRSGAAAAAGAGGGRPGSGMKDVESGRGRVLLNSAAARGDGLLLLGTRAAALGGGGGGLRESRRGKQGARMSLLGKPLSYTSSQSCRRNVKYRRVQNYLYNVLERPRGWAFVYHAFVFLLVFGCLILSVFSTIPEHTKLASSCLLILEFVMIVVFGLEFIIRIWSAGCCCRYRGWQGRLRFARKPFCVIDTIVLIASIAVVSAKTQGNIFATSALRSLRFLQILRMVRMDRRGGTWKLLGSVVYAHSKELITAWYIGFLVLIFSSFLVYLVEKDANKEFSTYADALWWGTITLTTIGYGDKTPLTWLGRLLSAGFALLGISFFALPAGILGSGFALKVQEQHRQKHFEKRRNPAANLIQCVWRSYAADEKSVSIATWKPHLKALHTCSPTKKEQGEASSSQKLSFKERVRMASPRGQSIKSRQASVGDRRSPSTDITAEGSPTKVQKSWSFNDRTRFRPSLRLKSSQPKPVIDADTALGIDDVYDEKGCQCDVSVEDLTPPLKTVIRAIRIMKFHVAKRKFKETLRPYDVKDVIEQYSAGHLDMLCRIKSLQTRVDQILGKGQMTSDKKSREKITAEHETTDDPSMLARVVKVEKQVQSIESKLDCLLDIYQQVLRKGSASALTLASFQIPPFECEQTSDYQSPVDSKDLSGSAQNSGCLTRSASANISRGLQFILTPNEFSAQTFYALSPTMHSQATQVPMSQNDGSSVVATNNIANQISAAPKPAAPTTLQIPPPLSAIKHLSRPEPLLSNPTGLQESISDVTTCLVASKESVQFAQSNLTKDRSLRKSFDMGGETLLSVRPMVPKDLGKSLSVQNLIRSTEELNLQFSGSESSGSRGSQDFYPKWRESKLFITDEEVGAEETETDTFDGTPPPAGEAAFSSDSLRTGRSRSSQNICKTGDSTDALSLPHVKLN

KCNQ1 = KCNQ1 (Homo sapiens, UniProt P51787); details: background statement; cited from earlier work
KCNQ1(L171W) = target: T3, KCNQ1(L171W) (Homo sapiens, UniProt P51787, L266W); assay: Two-electrode voltage clamp in Xenopus oocytes, KCNQ1(L171W)
T3 sequence (P51787 with tags, fused parts or gaps L266W): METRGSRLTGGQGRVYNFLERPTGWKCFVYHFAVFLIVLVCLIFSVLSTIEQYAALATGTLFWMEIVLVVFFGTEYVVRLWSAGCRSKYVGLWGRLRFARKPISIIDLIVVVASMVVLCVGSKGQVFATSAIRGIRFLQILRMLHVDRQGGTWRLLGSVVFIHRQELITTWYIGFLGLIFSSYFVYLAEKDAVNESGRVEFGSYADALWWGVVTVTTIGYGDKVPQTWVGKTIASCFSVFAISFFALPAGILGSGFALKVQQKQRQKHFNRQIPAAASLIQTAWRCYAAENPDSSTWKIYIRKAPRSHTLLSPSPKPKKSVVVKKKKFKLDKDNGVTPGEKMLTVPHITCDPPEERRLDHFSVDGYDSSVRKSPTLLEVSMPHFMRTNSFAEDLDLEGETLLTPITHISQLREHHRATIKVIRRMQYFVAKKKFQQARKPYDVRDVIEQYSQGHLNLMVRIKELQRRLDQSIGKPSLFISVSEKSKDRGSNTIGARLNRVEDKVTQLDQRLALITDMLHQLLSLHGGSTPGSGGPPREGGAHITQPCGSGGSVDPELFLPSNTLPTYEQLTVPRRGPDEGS

CCOC(=O)Nc1ccc(NCc2ccc(F)cc2)cc1N [retigabine, N-(2-amino-4-(4-fluorobenzylamino)-phenyl)carbamic acid ethyl ester]
current (I)-voltage relationship in the absence vs presence of retigabine ([1]; 5 min after the application, p>0.05): No significant difference
change of current amplitude and voltage dependent activation ([1]; 5 min application period, FIG. 1C): neither current amplitude nor voltage dependent activation changed significantly
effect on channel activities ([1]; oocytes, FIGS. 1A and 1B): no longer augmented the channel activities
response to retigabine (fold increase IΔ/I0 in current amplitude) (KCNQ5(W270L)): significantly less response; also recorded: completely lost the response
response to retigabine (fold increase IΔ/I0 in current amplitude) (KCNQ5(A269T)): significantly less response
channel current induced by depolarization to 40 mV ([2]; 5 min of bath application): remained unchanged
current amplitude and voltage dependence of the currents (I-V curves before and after treatment) ([2]; FIG. 2A right panel, FIG. 2C): Neither current amplitude nor voltage dependence of the currents was modified
effect on the mutant channel ([2]; FIG. 2B): no longer had effect
current (I)-voltage relationship in the absence vs presence of retigabine ([2]; p>0.05): No significant difference
response of channel current (KCNQ1 wild-type; 50 μM retigabine): no significant response
response of channel current (KCNQ1 wild-type; 200 μM retigabine): slightly inhibitory response
responsiveness of the channel to retigabine (Wild type KCNQ5; Wickendon et al. 2001): responsive
opening of KCNQ channels (Wild type KCNQ5; background statement): open
sensitivity of the channel to retigabine (rat KCNQ5 polypeptide): sensitive
sensitivity of the channel to retigabine (mouse KCNQ5 polypeptide): sensitive
enhancing effect on the channel (KCNQ1): no enhancing effect
steady state current amplitude (KCNQ1(L171W); 50 μM retigabine, FIG. 4B): clearly reduced
voltage dependence of channel activation (KCNQ1(L171W); FIG. 4D and inset (200 μM)): modified the voltage dependence of channel activation
activation kinetics of the current (KCNQ1(L171W); current evoked at 80 mV, FIG. 4C): from a single to a double exponential activation time course
kind of effect on the channel (activated or blocked) (KCNQ1(L171W); oocytes, TEVC): blocked
inhibition at 200 µM (KCNQ1(L171W); read-out: inhibition of the steady-state current): 62.5%

Source: patent US20070190554A1, “Novel binding site for retigabine on KCNQ5” (priority 2006, published 2007)
